Source: ChEMBL document CHEMBL1201862, “PubChem BioAssay data set” (2004)
Where a name gives a salt, the structure may show the parent alone. The source made the active and inactive calls.

Experiments:
Cytochrome P450 3A4 = Cytochrome P450 3A4 (Homo sapiens, UniProt P08684);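 note: CYP3A4 tested as one member of a cytochrome P450 panel screen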
Cytochrome P450 1A2 = target: T1, Cytochrome P450 1A2 (Homo sapiens, UniProt P05177);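 note: PubChem cytochrome P450 panel assay, CYP1A2 panel member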
T1 sequence (P05177 whole entry): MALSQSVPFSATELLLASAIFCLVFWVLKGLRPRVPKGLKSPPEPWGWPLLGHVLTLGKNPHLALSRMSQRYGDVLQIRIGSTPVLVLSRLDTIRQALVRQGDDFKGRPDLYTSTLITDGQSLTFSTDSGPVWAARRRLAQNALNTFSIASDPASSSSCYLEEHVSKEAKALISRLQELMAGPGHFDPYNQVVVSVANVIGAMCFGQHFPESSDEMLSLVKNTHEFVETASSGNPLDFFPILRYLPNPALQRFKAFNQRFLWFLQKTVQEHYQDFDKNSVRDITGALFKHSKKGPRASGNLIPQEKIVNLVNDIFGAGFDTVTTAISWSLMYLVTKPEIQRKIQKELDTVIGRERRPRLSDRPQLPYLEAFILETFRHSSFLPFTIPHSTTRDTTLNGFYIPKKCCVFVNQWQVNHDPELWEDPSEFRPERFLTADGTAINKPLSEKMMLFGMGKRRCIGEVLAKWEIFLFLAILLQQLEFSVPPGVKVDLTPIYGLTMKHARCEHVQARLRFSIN

Cytochrome P450 2C19 = Cytochrome P450 2C19 (Homo sapiens, UniProt P33261); experiment: Cytochrome panel assay with activity outcomes. Panel member name: p450-cyp2c19 Compounds with AC50 equal or less than 10 uM are considered active; format: functional; conditions: read-out: AC50
Cytochrome P450 2C19, sequence (P33261 whole entry): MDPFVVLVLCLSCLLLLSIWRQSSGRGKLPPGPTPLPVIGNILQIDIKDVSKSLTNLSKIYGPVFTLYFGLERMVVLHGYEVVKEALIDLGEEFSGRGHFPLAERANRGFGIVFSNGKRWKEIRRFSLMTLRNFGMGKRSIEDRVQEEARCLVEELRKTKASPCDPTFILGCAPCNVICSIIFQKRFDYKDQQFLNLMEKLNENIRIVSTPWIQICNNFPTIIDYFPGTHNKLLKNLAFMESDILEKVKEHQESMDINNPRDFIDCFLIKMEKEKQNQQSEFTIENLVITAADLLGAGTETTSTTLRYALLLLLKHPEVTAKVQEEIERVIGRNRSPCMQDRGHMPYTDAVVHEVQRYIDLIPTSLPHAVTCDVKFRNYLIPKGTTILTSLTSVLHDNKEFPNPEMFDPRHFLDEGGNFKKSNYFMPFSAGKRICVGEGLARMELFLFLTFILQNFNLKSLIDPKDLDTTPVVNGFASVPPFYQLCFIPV

[1] = target: T2, Replicative DNA helicase DnaB (Mycobacterium tuberculosis, UniProt P9WMR3); experiment: DnaB intein splicing inhibitors, dose response, biochemical, cell-free fluorescence (AID 449749); format: functional
T2 sequence (P9WMR3 whole entry): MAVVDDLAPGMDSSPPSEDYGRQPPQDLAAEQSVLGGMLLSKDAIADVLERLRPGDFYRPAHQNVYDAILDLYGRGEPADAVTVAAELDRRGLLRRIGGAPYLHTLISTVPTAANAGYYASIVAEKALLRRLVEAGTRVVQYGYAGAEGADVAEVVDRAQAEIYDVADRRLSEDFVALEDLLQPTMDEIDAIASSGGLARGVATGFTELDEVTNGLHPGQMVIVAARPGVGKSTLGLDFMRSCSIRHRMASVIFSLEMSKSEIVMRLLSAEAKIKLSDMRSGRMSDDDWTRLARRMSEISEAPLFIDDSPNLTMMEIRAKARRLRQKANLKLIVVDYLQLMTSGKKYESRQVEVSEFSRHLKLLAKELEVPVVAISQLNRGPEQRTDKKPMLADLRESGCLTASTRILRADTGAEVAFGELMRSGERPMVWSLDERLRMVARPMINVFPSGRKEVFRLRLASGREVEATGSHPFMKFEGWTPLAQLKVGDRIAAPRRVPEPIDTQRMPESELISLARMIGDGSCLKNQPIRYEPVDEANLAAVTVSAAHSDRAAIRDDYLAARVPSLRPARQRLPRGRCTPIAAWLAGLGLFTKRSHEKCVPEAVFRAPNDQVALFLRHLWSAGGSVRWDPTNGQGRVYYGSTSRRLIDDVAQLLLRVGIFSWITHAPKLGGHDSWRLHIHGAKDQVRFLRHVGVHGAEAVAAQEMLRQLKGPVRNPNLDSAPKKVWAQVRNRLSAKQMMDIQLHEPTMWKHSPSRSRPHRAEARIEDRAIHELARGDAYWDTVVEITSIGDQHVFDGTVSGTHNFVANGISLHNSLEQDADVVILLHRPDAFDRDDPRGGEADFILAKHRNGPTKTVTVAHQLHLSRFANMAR

Protein RecA = target: T3, Protein RecA (Mycobacterium tuberculosis, UniProt P9WHJ3); experiment: Fluorescence Cell-Free Homogeneous Dose Retest to Identify Inhibitors of RecA-Intein Splicing Activity. [Related pubchem assays (depositor defined):AID2097, AID2223, AID489010, AID492950]; format: functional
T3 sequence (P9WHJ3 whole entry): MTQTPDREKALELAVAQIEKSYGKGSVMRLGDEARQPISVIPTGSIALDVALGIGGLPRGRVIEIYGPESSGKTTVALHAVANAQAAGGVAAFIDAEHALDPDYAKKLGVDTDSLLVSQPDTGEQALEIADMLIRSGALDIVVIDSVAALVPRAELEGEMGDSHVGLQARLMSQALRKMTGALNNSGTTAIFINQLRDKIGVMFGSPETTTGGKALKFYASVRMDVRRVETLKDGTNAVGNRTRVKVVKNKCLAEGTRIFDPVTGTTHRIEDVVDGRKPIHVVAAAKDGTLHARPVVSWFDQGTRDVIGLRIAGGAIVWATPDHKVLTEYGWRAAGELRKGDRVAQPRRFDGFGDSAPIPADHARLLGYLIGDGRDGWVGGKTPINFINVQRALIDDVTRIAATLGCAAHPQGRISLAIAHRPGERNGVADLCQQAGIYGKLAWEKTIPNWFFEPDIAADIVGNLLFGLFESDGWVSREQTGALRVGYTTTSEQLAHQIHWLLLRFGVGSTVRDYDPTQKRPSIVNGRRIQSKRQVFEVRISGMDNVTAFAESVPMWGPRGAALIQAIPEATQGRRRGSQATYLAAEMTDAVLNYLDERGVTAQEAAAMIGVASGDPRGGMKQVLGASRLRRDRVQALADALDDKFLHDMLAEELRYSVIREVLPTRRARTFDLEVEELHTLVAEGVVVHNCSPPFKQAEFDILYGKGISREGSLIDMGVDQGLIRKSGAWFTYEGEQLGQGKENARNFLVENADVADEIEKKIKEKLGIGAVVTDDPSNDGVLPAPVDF

[2] = NIH-3T3 fibroblast cytotoxicity, dose response, cytotoxicity control, cell-based, fluorescence, Alamar Blue, secondary assay (AID 2327); format: functional;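 note: NIH-3T3 mouse fibroblasts cultured with fluconazole at 8 µg/mL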
[3] = C. albicans growth with fluconazole, confirmation, fluorescence, retest (AID 2467); format: functional, cell-based
[4] = target: T4, Heat shock factor protein 1 (Mus musculus, UniProt P38532); experiment: inhibition of MG132-induced HSE-luciferase signal, confirmation, cell-based, NIH3T3, luminescence, dose retest (AID 2382); format: functional;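 note: NIH3T3 fibroblasts with HSF1-driven luciferase reporter stressed by proteasome inhibitor MG132; luminescence from HSF1-driven luciferase expression after 8 hours of MG132 stress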
T4 sequence (P38532 whole entry): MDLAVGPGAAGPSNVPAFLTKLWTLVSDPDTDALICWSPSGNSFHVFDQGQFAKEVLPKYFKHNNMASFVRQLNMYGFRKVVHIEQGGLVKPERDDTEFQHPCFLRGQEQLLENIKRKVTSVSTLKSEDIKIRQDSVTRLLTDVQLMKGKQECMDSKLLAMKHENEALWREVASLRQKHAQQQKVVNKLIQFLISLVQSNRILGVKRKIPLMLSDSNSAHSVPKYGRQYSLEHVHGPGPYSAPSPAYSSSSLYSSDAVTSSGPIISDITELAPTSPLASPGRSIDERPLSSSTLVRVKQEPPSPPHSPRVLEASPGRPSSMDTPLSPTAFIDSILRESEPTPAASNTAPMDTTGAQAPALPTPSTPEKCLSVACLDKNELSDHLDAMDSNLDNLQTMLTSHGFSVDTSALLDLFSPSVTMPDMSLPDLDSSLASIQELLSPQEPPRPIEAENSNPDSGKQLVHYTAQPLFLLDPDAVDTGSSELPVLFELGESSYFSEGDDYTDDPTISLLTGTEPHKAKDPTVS

Cytochrome P450 2C9 = Cytochrome P450 2C9 (Homo sapiens, UniProt P11712)
Cytochrome P450 2C9, sequence (P11712 whole entry): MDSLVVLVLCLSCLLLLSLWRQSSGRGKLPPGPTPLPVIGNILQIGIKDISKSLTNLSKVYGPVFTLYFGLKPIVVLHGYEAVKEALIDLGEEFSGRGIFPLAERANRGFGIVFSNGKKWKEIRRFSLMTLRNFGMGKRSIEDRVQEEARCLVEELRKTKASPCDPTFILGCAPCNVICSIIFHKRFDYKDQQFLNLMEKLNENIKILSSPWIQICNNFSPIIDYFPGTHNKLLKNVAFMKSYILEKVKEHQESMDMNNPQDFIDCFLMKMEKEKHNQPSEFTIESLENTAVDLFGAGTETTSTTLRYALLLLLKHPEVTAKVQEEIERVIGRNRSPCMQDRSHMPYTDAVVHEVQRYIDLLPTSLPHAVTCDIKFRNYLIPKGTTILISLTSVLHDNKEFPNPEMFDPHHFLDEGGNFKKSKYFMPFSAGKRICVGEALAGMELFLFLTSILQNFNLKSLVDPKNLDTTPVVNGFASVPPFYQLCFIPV

Streptococcus = experiment: Group A Streptococcus viability loss, dose response, counter-screen for streptokinase expression inhibitor project, luminescence, BacTiterGlo (AID 1915); format: functional, organism-based; conditions: read-out: EC50;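 note: potency for reduction of bacterial viability or growth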
[5] = tested on: Streptococcus sp. 'group A'; experiment: growth inhibition of control SK(-) GAS strain, dose response, counter-screen for streptokinase expression inhibitor project, luminescence, kanamycin, BacTiterGlo, confirmation (AID 1900); format: functional, organism-based

Cytochrome P450 3A4, sequence (P08684 whole entry): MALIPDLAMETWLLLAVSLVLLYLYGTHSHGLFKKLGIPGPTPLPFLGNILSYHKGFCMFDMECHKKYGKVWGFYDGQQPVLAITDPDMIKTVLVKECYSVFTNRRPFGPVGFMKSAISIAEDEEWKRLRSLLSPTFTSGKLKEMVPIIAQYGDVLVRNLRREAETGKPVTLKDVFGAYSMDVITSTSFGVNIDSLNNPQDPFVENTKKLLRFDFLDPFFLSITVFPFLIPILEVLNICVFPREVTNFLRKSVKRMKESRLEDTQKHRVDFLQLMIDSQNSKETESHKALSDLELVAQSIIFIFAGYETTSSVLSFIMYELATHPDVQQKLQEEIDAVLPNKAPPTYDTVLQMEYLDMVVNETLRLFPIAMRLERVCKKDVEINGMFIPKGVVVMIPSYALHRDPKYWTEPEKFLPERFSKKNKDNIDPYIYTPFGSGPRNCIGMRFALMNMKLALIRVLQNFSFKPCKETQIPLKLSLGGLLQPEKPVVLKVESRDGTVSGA

CN(C)CCCc1cc(C(=O)Nc2ccc(-c3ccncc3)cc2)ccc1O [GR-55562]
AC50 (Cytochrome P450 3A4): 1.26 µM (inconclusive) | AC50 (Cytochrome P450 1A2): 39.8 µM (inconclusive) | AC50 (Cytochrome P450 2C19): 31.6 µM (inconclusive)

Cn1c(-[n+]2c(-c3ccccc3)cc(-c3ccccc3)cc2-c2ccccc2)nc2c([N+](=O)[O-])cccc21
AC50 [1]: 15.3 µM (active) | EC50 (Protein RecA): 15.3 µM (active)

CSc1ccc(/C=C/C(=O)Nc2ccccc2)cc1
EC50 [2]: > 150 µM (inactive) | EC50 [3]: > 38 µM (not active)

O=C(O)c1cc(S(=O)(=O)Nc2ccc3c(c2)OCCO3)c(Cl)cc1Cl
EC50 [4]: 2.54 µM (active)

COc1ccc(C(=O)NCCN2CCOCC2)c(OC)c1OC
EC50 [2]: > 150 µM (inactive) | EC50 [3]: > 38 µM (not active)

CCNc1ncc2nc(CCc3ccccc3)c(=O)n(Cc3ccc(F)cc3)c2n1
AC50 (Cytochrome P450 1A2): 3.16 µM (inconclusive)

COC(=O)N1CCC[C@@]2(CCN(C(c3ccccc3)c3ccccc3)C2)C1
AC50 (Cytochrome P450 2C9): 25.1 µM (inconclusive) | AC50 (Cytochrome P450 1A2): 12.6 µM (inconclusive) | AC50 (Cytochrome P450 2C19): 39.8 µM (inconclusive)

CCOc1ccccc1NC(=O)C(=O)NCC1CCCN1CC (stereo not given)
AC50 (Cytochrome P450 1A2): 15.8 µM (inconclusive)

Cc1cccc(-n2nc(C(=O)c3ccco3)cc(-c3nc4ccccc4[nH]3)c2=N)c1
EC50 (Streptococcus): 5.95 µM (active) | EC50 [5]: 2.49 µM (active) | EC50 [2]: > 160 µM (inactive) | EC50 [3]: > 38 µM (not active)

Cc1cc2ccc(OC(=O)c3ccc(NC(=N)N)cc3)cc2oc1=O
AC50 (Cytochrome P450 1A2): 2.51 µM (inconclusive)

COCCCC/C(=N\OCCN)c1ccc(C(F)(F)F)cc1 [FLUVOXAMINE MALEATE]
EC50 [4]: > 195 µM (not active)

CCN1CCN(c2cc(C)c3cc(NC(=S)N4CCCC(C)C4)ccc3n2)CC1 (stereo not given)
EC50 [4]: 11 µM (active)

O=C(Nc1ccccc1)OCN1C(=O)c2ccccc2C1=O
EC50 [2]: > 150 µM (inactive) | EC50 [3]: > 38 µM (not active)

Cc1cc(S(=O)(=O)N2CCCC2)ccc1OCC(=O)NCc1ccccc1
EC50 [4]: > 195 µM (not active)

CCCCCCCCCCCCCCCC[N+](C)(C)CCN(Cc1ccc(OC)cc1)c1ncccn1 [THONZONIUM]
AC50 (Cytochrome P450 2C9): 15.8 µM (inconclusive) | AC50 (Cytochrome P450 1A2): 20 µM (inconclusive)

CCOC(=O)C(CC)/C(C)=N\NC(=O)c1ccccc1O (stereo not given)
EC50 [2]: > 160 µM (inactive) | EC50 [3]: > 38 µM (not active)

COCC(=O)N1CCC2(CC1)CN(Cc1cc(C(F)(F)F)cc(C(F)(F)F)c1)C2
AC50 (Cytochrome P450 2C9): 12.6 µM (inconclusive) | AC50 (Cytochrome P450 1A2): 25.1 µM (inconclusive) | AC50 (Cytochrome P450 2C19): 20 µM (inconclusive)

Cc1ccc2nc(O)c(CN(C(=O)c3cccc([N+](=O)[O-])c3)C(C)C)cc2c1
EC50 [4]: > 195 µM (not active)

O=C(O)Cn1c(=O)c2c3c(sc2n(Cc2ccc(Cl)cc2Cl)c1=O)CCCC3
EC50 [4]: > 195 µM (not active)

O=C(CC1C(=O)NCCN1Cc1ccccc1F)NC1CCCCCC1 (stereo not given)
EC50 [4]: 24.1 µM (active)

Cc1noc(NS(=O)(=O)c2ccc(N3Cc4ccccc4C3=O)cc2)c1C
EC50 [4]: > 195 µM (not active)

Cc1ccc(C(=O)C(OC(=O)CCC(=O)Nc2cccc(C)c2)c2ccccc2)cc1 (stereo not given)
AC50 (Cytochrome P450 1A2): 17.8 µM (inconclusive)

CN[C@H](CC(=O)O)C(=O)O [N-METHYL-D-ASPARTIC ACID (NMDA)]
AC50 (Cytochrome P450 1A2): 39.8 µM (inconclusive)

COC(=O)c1ccc2c(=O)n(-c3ccccc3)c(=S)[nH]c2c1
EC50 [4]: > 195 µM (not active)

CCCCSC1=C(C#N)C(c2ccccc2C)CC(=O)N1 (stereo not given)
EC50 [4]: > 195 µM (not active)

COc1ccccc1CNCC(O)(c1ccc(Cl)cc1)c1ccc(Cl)cc1
AC50 (Cytochrome P450 1A2): 10 µM (inconclusive)

COc1ccccc1N(C)S(=O)(=O)c1ccc(C(=O)NC(C)c2ccccc2)cc1 (stereo not given)
EC50 [4]: > 195 µM (not active)

O=C(CCCCCN1C(=O)c2ccccc2C1=O)NCc1ccccn1
AC50 (Cytochrome P450 3A4): 25.1 µM (inconclusive) | AC50 (Cytochrome P450 2C9): 31.6 µM (inconclusive) | AC50 (Cytochrome P450 1A2): 14.1 µM (inconclusive)

COc1cccc2c(=O)n(CC(=O)NCCc3ccccc3)ccc12
EC50 [4]: > 195 µM (not active)

Cc1ccc2c(ccc[n+]2CC(=O)c2ccccc2)c1
EC50 [2]: > 150 µM (inactive) | EC50 [3]: > 38 µM (not active)

O=C(CCS(=O)(=O)c1cccc2nsnc12)NC1CCCCC1
AC50 (Cytochrome P450 1A2): 25.1 µM (inconclusive)

Cc1oc(-c2cccs2)nc1CN1CCN(Cc2ccc(F)c(F)c2)C(CCO)C1 (stereo not given)
EC50 [2]: > 150 µM (inactive) | EC50 [3]: > 38 µM (not active)

CN(CCC(=O)O)S(=O)(=O)c1ccccc1
AC50 (Cytochrome P450 1A2): 3.16 µM (inconclusive)

Clc1cccc(N/N=C/c2ccncc2)c1
EC50 [2]: > 160 µM (inactive) | EC50 [3]: > 38 µM (not active)

O=C(CCS(=O)(=O)c1cccc2nsnc12)N1CCN(C(=O)c2ccco2)CC1
EC50 [2]: > 160 µM (inactive) | EC50 [3]: > 38 µM (not active)

CC(C)c1ccc(NC(=O)Nc2cc3sccc3n2C)cc1
EC50 [4]: > 195 µM (not active)

CC(C)CNS(=O)(=O)c1ccc(CCC(=O)N2CCOCC2)cc1
EC50 [4]: > 195 µM (not active)

COCCn1c(=S)[nH]c2cc(C(=O)NC(C)C)ccc2c1=O
AC50 (Cytochrome P450 1A2): 3.16 µM (inconclusive)

Cc1cc(C)c(C#N)c(SCC(=O)NC(C)(C)C)n1
EC50 [4]: > 195 µM (not active)
